# Values quoted from earlier work in patent US8535946B2, “Biomarker to measure drug efficacy in enteropathic disease” (The Board of Trustees of the Leland Stanford Junior …, priority 2007, dated 2013).
# Conditions: humans
smiles,measurement,value
Cc1ncc2n1-c1ccc(Cl)cc1C(c1ccccc1F)=NC2 [midazolam],dose excreted unchanged in the urine,less than 1%
